Measurements reported in patent publication US11524966B1 (Valo Early Discovery, Inc., priority 2017, dated 2022).

target: T1, USP28 (His-tagged USP28-FL-mammalian) (Homo sapiens, UniProt Q96RU2); experiment: Ubiquitin-Rhodamine 110 Assay for USP28 Activity, Example A-1(a); type: biochemical; settings: Ubiquitin-Rhodamine 110 assay, Example A-1(a); read-out: USP28 A-1(a) IC50 range
T1 construct: Expression of USP28 (1-1077)-TEV-6*His (pTT5 vector); made in house; host or cells: Expi293f cells (pTT5 vector)
T1 sequence (Q96RU2 1-1077): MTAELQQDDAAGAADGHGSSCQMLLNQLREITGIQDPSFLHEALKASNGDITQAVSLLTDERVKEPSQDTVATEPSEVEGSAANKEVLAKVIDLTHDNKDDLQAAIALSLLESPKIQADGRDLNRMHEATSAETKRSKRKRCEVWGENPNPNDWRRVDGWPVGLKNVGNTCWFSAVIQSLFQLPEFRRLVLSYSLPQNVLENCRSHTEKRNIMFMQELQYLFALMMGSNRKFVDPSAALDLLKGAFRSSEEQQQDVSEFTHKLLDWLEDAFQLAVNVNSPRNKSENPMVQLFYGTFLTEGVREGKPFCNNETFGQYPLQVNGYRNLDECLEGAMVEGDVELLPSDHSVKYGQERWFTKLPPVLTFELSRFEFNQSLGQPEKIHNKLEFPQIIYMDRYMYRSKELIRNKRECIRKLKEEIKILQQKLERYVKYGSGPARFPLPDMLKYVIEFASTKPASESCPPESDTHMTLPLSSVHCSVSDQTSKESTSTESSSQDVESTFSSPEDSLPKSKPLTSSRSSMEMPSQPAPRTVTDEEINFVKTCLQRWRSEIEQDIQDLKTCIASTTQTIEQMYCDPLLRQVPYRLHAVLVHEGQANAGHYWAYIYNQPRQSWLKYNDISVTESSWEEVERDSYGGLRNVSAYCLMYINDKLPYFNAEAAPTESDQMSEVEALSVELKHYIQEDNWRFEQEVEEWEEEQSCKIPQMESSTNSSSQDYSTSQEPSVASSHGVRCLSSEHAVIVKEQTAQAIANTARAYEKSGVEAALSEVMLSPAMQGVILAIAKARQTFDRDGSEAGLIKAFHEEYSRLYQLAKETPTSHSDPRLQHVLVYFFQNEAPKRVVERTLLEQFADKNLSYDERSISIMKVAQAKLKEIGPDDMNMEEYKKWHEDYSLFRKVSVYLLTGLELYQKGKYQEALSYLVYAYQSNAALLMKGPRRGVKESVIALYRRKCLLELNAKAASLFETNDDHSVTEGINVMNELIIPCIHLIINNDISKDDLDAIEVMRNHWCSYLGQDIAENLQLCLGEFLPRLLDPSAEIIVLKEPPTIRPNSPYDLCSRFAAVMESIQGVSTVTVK
How it was run: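 Full-length His-tagged human USP28 (1-1077, Expi293f-expressed), […], with 25 nM Ub-Rh110 (<<Km) in pH 8.0 Tris buffer with BME, BGG, Triton X-100. 10-point dilutions (25 μM-1.3 nM), 45 min at room temperature, citric acid stop, fluorescence 485/535 nm; IC50 by 4-parameter fit.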

Compared with Cc1ccc2c(N)c(C(=O)N[C@H]3CCc4nc(N5CCNCC5)ccc4C3)sc2n1 (single isomer, unassigned) [Example 23-7], Cc1ccc2c(N)c(C(=O)N[C@@H]3CCc4nc(N5CCNCC5)ccc4C3)sc2n1 (single isomer, unassigned) [Example 23-8] is higher in IC50: 1 to 50 nM for the first, 50 to 200 nM for the second. The first is the more potent here.

Cc1ccc2c(N)c(C(=O)N[C@H]3CCc4nc(N5CCN[C@@H](C)C5)ccc4C3)sc2n1 (single isomer, unassigned) [Example 23-15] and Cc1ccc2c(N)c(C(=O)N[C@H]3CCc4nc(N5CCN[C@H](C)C5)ccc4C3)sc2n1 (single isomer, unassigned) [Example 23-16] fall in the same range of IC50: 1 to 50 nM for the first, 1 to 50 nM for the second.

COC[C@@H]1CN(c2ccc3c(n2)CC[C@H](NC(=O)c2sc4nc(C)ccc4c2N)C3)C[C@@H]1N (single isomer, unassigned) [Example 24-1] and COC[C@H]1CN(c2ccc3c(n2)CC[C@H](NC(=O)c2sc4nc(C)ccc4c2N)C3)C[C@H]1N (single isomer, unassigned) [Example 24-2] fall in the same range of IC50: 50 to 200 nM for the first, 50 to 200 nM for the second.

First: Cc1ccc2c(N)c(C(=O)N[C@H]3CCc4nc(N5CCNCC5)c(F)cc4C3)sc2n1 (single isomer, unassigned) [Example 30-1]
Second: Cc1ccc2c(N)c(C(=O)N[C@@H]3CCc4nc(N5CCNCC5)c(F)cc4C3)sc2n1 (single isomer, unassigned) [Example 30-2]
The IC50 of the first is lower: 1 to 50 nM for the first, 200 to 2000 nM for the second. The first is the more potent here.

First: Cc1ccc2c(N)c(C(=O)N[C@@H]3Cc4ccc(N5CCNCC5)nc4C4(CC4)C3)sc2n1 (single isomer, unassigned) [Example 31-3, 3-amino-6-methyl-N-[(6′S)-2-(piperazin-1-yl)-6′,7′-dihydro-5′H-spiro[cyclopropane-1,8′-quinoline]-6′-yl]thieno[2,3-b]pyridine-2-carboxamide]
Second: Cc1ccc2c(N)c(C(=O)N[C@H]3Cc4ccc(N5CCNCC5)nc4C4(CC4)C3)sc2n1 (single isomer, unassigned) [Example 31-4, 3-amino-6-methyl-N-[(6′R)-2′-(piperazin-1-yl)-6′,7′-dihydro-5′H-spiro[cyclopropane-1,8′-quinoline]-6′-yl]thieno[2,3-b]pyridine-2-carboxamide]
The IC50 of the first is higher: 50 to 200 nM for the first, 1 to 50 nM for the second.

Cc1ccc2c(N)c(C(=O)N[C@H]3COc4cc(N5C[C@@H]6CCNC[C@@H]65)ccc4C3)sc2n1 (single isomer, unassigned) [Example 33-3] and Cc1ccc2c(N)c(C(=O)N[C@H]3COc4cc(N5C[C@H]6CCNC[C@H]65)ccc4C3)sc2n1 (single isomer, unassigned) [Example 33-4] fall in the same range of IC50: 1 to 50 nM for the first, 1 to 50 nM for the second.

First: Cc1cnc2c(N)c(C(=O)N[C@H]3COc4cc(N5CC6CCC(C5)N6)c(F)cc4C3)sc2n1 (single isomer, unassigned) [Example 40]
Second: Cc1cnc2c(N)c(C(=O)N[C@@H]3COc4cc(N5CC6CCC(C5)N6)c(F)cc4C3)sc2n1 (single isomer, unassigned) [Example 41]
The IC50 of the first is lower: 1 to 50 nM for the first, 200 to 2000 nM for the second. The first is the more potent here.

First: Cc1nc2sc(C(=O)N[C@H]3CCc4nc(N5CCNCC5)ccc4C3)c(N)c2s1 [Example 23-9]
Second: Cc1cc(C)c2c(N)c(C(=O)N[C@H]3CCc4nc(N5CCNCC5)ccc4C3)sc2n1 [Example 23-14, 3-amino-4,6-dimethyl-N-[(6S)-2-(piperazin-1-yl)-5,6,7,8-tetrahydroquinolin-6-yl]thieno[2,3-b]pyridine-2-carboxamide]
The IC50 of the first is higher: 50 to 200 nM for the first, 1 to 50 nM for the second.

First: Cc1ccc2c(N)c(C(=O)N[C@H]3CCc4nc(N5CC6CC(C5)N6)ccc4C3)sc2n1 [Example 23-10, 3-amino-N-[(6S)-2-{3,6-diazabicyclo[3.1.1]heptan-3-yl}-5,6,7,8-tetrahydroquinolin-6-yl]-6-methylthieno[2,3-b]pyridine-2-carboxamide]
Second: Cc1ccc2c(N)c(C(=O)N[C@H]3CCc4nc(N5CC6CCC(C5)N6)ccc4C3)sc2n1 [Example 23-12, 3-amino-N-[(6S)-2-{3,8-diazabicyclo[3.2.1]octan-3-yl}-5,6,7,8-tetrahydroquinolin-6-yl]-6-methylthieno[2,3-b]pyridine-2-carboxamide]
The IC50 of the first is higher: 200 to 2000 nM for the first, 1 to 50 nM for the second.

First: Cc1cnc2c(N)c(C(=O)N[C@H]3CCc4nc(N5CC6CC(C5)N6)ccc4C3)sc2n1 [Example 23-11, 7-amino-N-[(6S)-2-{3,6-diazabicyclo[3.1.1]heptan-3-yl}-5,6,7,8-tetrahydroquinolin-6-yl]-3-methylthieno[2,3-b]pyrazine-6-carboxamide]
Second: Cc1cnc2c(N)c(C(=O)N[C@H]3CCc4nc(N5CC6CCC(C5)N6)ccc4C3)sc2n1 [Example 23-13, 7-amino-N-{(6S)-2-{3,8-diazabicyclo[3.2.1]octan-3-yl}-5,6,7,8-tetrahydroquinolin-6-yl]-3-methylthieno[2,3-b]pyrazine-6-carboxamide]
The IC50 of the first is higher: 200 to 2000 nM for the first, 1 to 50 nM for the second. The second is the more potent here.

Cc1ccc2c(N)c(C(=O)N[C@H]3CCc4nc(N5CCNCC5)cc(F)c4C3)sc2n1 [Example 23-17, 3-amino-N-[(6S)-4-fluoro-2-(piperazin-1-yl)-5,6,7,8-tetrahydroquinolin-6-yl]-6-methylthieno[2,3-b]pyridine-2-carboxamide] and Cc1ccc2c(N)c(C(=O)N[C@H]3CCc4nc(N5CC6CCC(C5)N6)cc(F)c4C3)sc2n1 [Example 23-18, N-((6S)-2-(3,8-diazabicyclo[3.2.1]octan-3-yl)-4-fluoro-5,6,7,8-tetrahydroquinolin-6-yl)-3-amino-6-methylthieno[2,3-b]pyridine-2-carboxamide] fall in the same range of IC50: 1 to 50 nM for the first, 1 to 50 nM for the second.

First: Cc1ccc2c(N)c(C(=O)N[C@H]3CCc4nc(N5C[C@@H](N)[C@H](C(F)F)C5)ccc4C3)sc2n1 [Example 25, 3-Amino-N-[(6S)-2-[(3S,4R)-3-amino-4-(difluoromethyl)pyrrolidin-1-yl]-5,6,7,8-tetrahydroquinolin-6-yl]-6-methylthieno[2,3-b]pyridine-2-carboxamide]
Second: Cc1ccc2c(N)c(C(=O)N[C@H]3COc4cc(N5C[C@H]6CNC[C@@H]6C5)ccc4C3)sc2n1 [Example 43, 3-amino-N-((R)-7-((3aR,6aR)-hexahydropyrrolo[3,4-c]pyrrol-2(1H)-yl)chroman-3-yl)-6-methylthieno[2,3-b]pyridine-2-carboxamide]
The IC50 of the first is lower: 50 to 200 nM for the first, 200 to 2000 nM for the second.

First: Cc1ccc2c(N)c(C(=O)N[C@H]3COc4cc(C5(C#N)CCS(=O)(=O)CC5)ccc4C3)sc2n1 [Example 34, 3-amino-N-[(3R)-7-(4-cyano-1,1-dioxo-1λ6-thian-4-yl)-3,4-dihydro-2H-1-benzopyran-3-yl]-6-methylthieno[2,3-b]pyridine-2-carboxamide]
Second: CCc1cnc2sc(C(=O)N[C@H]3COc4cc(N5CCNCC5)ccc4C3)c(N)c2n1 [Example 36, (R)-7-amino-2-ethyl-N-(7-(piperazin-1-yl)chroman-3-yl)thieno[2,3-b]pyrazine-6-carboxamide]
The IC50 of the first is lower: 1 to 50 nM for the first, 200 to 2000 nM for the second. The first is the more potent here.

First: Cc1ccc2c(N)c(C(=O)N[C@H]3COc4c(F)c(N5CCNCC5)c(F)c(F)c4C3)sc2n1 [Example 35, 3-amino-6-methyl-N-[(3R)-5,6,8-trifluoro-7-(piperazin-1-yl)-3,4-dihydro-2H-1-benzopyran-3-yl]thieno[2,3-b]pyridine-2-carboxamide]
Second: CCc1cnc2sc(C(=O)N[C@@H]3COc4cc(N5CCNCC5)ccc4C3)c(N)c2n1 [Example 37, (S)-7-amino-2-ethyl-N-(7-(piperazin-1-yl)chroman-3-yl)thieno[2,3-b]pyrazine-6-carboxamide]
The IC50 of the first is lower: 1 to 50 nM for the first, over 2000 nM for the second.

First: O=C(N[C@H]1COc2cc(N3CCNCC3)ccc2C1)c1cnc2c(ccn2C(F)F)c1 [Example 38, (R)-1-(difluoromethyl)-N-(7-(piperazin-1-yl)chroman-3-yl)-1H-pyrrolo[2,3-b]pyridine-5-carboxamide]
Second: O=C(N[C@@H]1COc2cc(N3CCNCC3)ccc2C1)c1cnc2c(ccn2C(F)F)c1 [Example 39, (S)-1-(difluoromethyl)-N-(7-(piperazin-1-yl)chroman-3-yl)-1H-pyrrolo[2,3-b]pyridine-5-carboxamide]
The IC50 of the first is lower: 200 to 2000 nM for the first, over 2000 nM for the second.
